# Publication PMC8954792 (Viruses, 2022)
# Like-named read-outs stand apart in the source and are kept apart here.
# What was measured:
# cell-free SARS-CoV-2 PsV = assay: Inactivation of cell-free SARS-CoV-2 PsV; format: cell-based
# authentic HCoV-OC43 = assay: CPE reduction assay, authentic HCoV-OC43; format: cell-based; settings: HCoV-OC43 infection, RD cells, CCK-8
# H5N1 PsV = assay: microbe, parasite or virus in culture; format: cell-based, influenza virus; settings: read-out: IC50 H5N1
# H7N9 PsV = assay: microbe, parasite or virus in culture; format: cell-based, influenza virus; settings: read-out: IC50 H7N9
# EBOV (Zaire) = assay: microbe, parasite or virus in culture; format: cell-based, Ebola virus
# EBOV (Sudan) = assay: microbe, parasite or virus in culture; format: cell-based, Ebola virus
# NiV = assay: microbe, parasite or virus in culture; format: cell-based, Nipah virus
# LASV = assay: organism not typed; format: cell-based, Lassa fever virus
# [1] = system: authentic ZIKV PRVABC59 (2015/Puerto Rico); assay: microbe, parasite or virus in culture; format: cell-based; settings: read-out: IC50
# VSV PsV = assay: microbe, parasite or virus in culture; format: cell-based, vesicular stomatitis virus; settings: read-out: IC50
# HPV PsV = format: cell-based, human papilloma virus
# authentic EV71 = assay: CPE reduction assay, authentic EV71; format: cell-based, human enterovirus 71 virus; settings: RD cells
# HIV-1 6-HB = HIV-1 6-HB (Human immunodeficiency virus type 1, UniProt P04578); assay: Inhibition of HIV-1 6-HB formation (ELISA); format: biochemical; settings: HIV-1 6-HB formation measured by ELISA
# Sequence of HIV-1 6-HB (P04578 536-581, added parts left off): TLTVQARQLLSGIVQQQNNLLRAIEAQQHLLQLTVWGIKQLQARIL
# Sequence of HIV-1 6-HB (P04578 536-581, added parts left off): as above
# HIV-1 Bal.01 PsV [2] = assay: Sucrose density gradient assay to evaluate viral inactivation; settings: HIV-1 Bal.01 PsV treated with 50 μM at 37 °C for 2 h
# SARS-CoV-2 PsV [3] = format: cell-based
# HIV-1 Bal.01 PsV [4] = assay: HIV-1 PsV inhibition in presence of recombinant unilamellar liposomes; format: cell-based; settings: compared with the PBS group
# [5] = system: authentic IAV H3N2 (A/Victoria/361/2011); format: cell-based, influenza virus
# [6] = system: authentic IAV H1N1 (A/California/04/2009); format: cell-based, influenza virus
# Vero E6 cells = format: cell-based
# SARS-CoV PsV [7] = system: SARS-CoV PsV
# cell-free SARS-CoV PsV [8] = system: cell-free SARS-CoV PsV
# MERS-CoV PsV [9] = system: MERS-CoV PsV
# cell-free MERS-CoV PsV [10] = system: cell-free MERS-CoV PsV
# Huh-7 cells = assay: Cytotoxicity (CCK-8) on Huh-7 cells
# hACE2-293T cells = assay: Cytotoxicity (CCK-8) on hACE2-293T cells
# SARS-CoV-2 PsV [11] = assay: microbe, parasite or virus in culture; format: cell-based; settings: Severe acute respiratory syndrome coronavirus 2
# [12] = system: pseudotyped SARS-CoV-2 Alpha (B.1.1.7); assay: microbe, parasite or virus in culture; format: cell-based; settings: Severe acute respiratory syndrome coronavirus 2, Caco-2
# [13] = system: pseudotyped SARS-CoV-2 Beta (B.1.351); assay: microbe, parasite or virus in culture; format: cell-based; settings: Severe acute respiratory syndrome coronavirus 2, Caco-2
# [14] = system: pseudotyped SARS-CoV-2 Gamma (P.1); assay: microbe, parasite or virus in culture; format: cell-based; settings: Severe acute respiratory syndrome coronavirus 2, Caco-2
# [15] = system: pseudotyped SARS-CoV-2 Omicron (B.1.1.529); assay: microbe, parasite or virus in culture; format: cell-based; settings: Severe acute respiratory syndrome coronavirus 2, Caco-2
# [16] = system: authentic SARS-CoV-2 WT (nCoV-SH01); assay: microbe, parasite or virus in culture; format: cell-based; settings: Severe acute respiratory syndrome coronavirus 2, Vero C1008
# in vitro = settings: dog
# [17] = Cytotoxicity (CCK-8) on Huh-7 cells; settings: human
# SARS-CoV PsV [18] = assay: microbe, parasite or virus in culture; settings: Severe acute respiratory syndrome coronavirus
# cell-free SARS-CoV PsV [19] = assay: microbe, parasite or virus in culture; settings: Severe acute respiratory syndrome coronavirus
# MERS-CoV PsV [20] = assay: microbe, parasite or virus in culture; settings: Middle East respiratory syndrome-related coronavirus, Huh-7
# cell-free MERS-CoV PsV [21] = assay: microbe, parasite or virus in culture; settings: Middle East respiratory syndrome-related coronavirus, Huh-7
# [22] = Cytotoxicity (CCK-8) on hACE2-293T cells; settings: human
# [23] = Severe acute respiratory syndrome coronavirus 2
smiles,measurement,setting,value
"O=C(O)c1cc(-c2ccc(C=C3SC(=S)N(CCc4ccccc4)C3=O)o2)ccc1Cl [FD001, furanyl methylidene rhodanine]",EC50,cell-free SARS-CoV-2 PsV,670 nM
same,IC50,authentic HCoV-OC43,480 nM
same,IC50,H5N1 PsV,260 ± 30 nM
same,IC50,H7N9 PsV,850 ± 210 nM
same,IC50,EBOV (Zaire),1040 ± 110 nM
same,IC50,EBOV (Sudan),390 ± 40 nM
same,IC50,NiV,410 ± 70 nM
same,IC50,LASV,440 ± 100 nM
same,IC50,[1],4.36 µM
same,IC50,VSV PsV,20 nM
same,inhibition of infection of nonenveloped HPV PsV,HPV PsV,could not inhibit
same,inhibition of infection of authentic EV71,authentic EV71,could not inhibit
same,IC50,HIV-1 6-HB,17.4 µM
same,integrity of the viral membrane (band distribution of p24),HIV-1 Bal.01 PsV [2],did not disrupt the integrity of the viral membrane
same,inhibition of SARS-CoV-2 PsV infection after unbound compound washed from cells,SARS-CoV-2 PsV [3],not effective in inhibiting viral infection after washing
same,"antiviral activity, liposomes added to HIV-1 PsV pretreated with compound",HIV-1 Bal.01 PsV [4],good antiviral activity
same,"inhibitory activity against HIV-1 PsV, compound pretreated with liposomes",HIV-1 Bal.01 PsV [4],no different from that of the PBS group
same,inhibition of authentic IAV H3N2 infection,[5],inhibited
same,inhibition of authentic IAV H1N1 infection,[6],inhibited
same,fluorescence intensity of treated cells (binding to cells),Vero E6 cells,positively correlated with compound concentration
same,IC50,SARS-CoV PsV [7],180 ± 20 nM
same,SI CC50/IC50,SARS-CoV PsV [7],160.22
same,EC50,cell-free SARS-CoV PsV [8],1580 ± 210 nM
same,SI CC50/EC50,cell-free SARS-CoV PsV [8],18.25
same,IC50,MERS-CoV PsV [9],290 ± 30 nM
same,SI CC50/IC50,MERS-CoV PsV [9],147.07
same,EC50,cell-free MERS-CoV PsV [10],1120 ± 160 nM
same,SI CC50/EC50,cell-free MERS-CoV PsV [10],38.08
same,CC50,MDCK cells,> 50 µM
same,CC50,Huh-7 cells,42.6 ± 1.31 µM
same,CC50,hACE2-293T cells,28.8 ± 1.24 µM
O=C(O)c1cc(-c2ccc(/C=C3\SC(=S)N(CCc4ccc(OCc5ccsc5)cc4)C3=O)o2)ccc1Cl [FD013],IC50,SARS-CoV-2 PsV [11],120 nM
same,IC50,[12],400 nM
same,IC50,[13],310 nM
same,IC50,[14],410 nM
same,IC50,[15],980 nM
same,IC50,[16],30 nM
same,EC50,cell-free SARS-CoV-2 PsV; [23],70 nM
same,IC50,"H5N1 PsV; Influenza A virus, H5N1, MDCK",260 ± 20 nM
same,IC50,"H7N9 PsV; Influenza A virus, H7N9, MDCK",3540 ± 890 nM
same,inhibition of SARS-CoV-2 PsV infection after unbound compound washed from cells,SARS-CoV-2 PsV [3],not effective in inhibiting viral infection after washing
same,SI CC50/IC50,SARS-CoV PsV [7],372.40
same,SI CC50/EC50,cell-free SARS-CoV PsV [8],186.20
same,SI CC50/IC50,MERS-CoV PsV [9],618.00
same,CC50,in vitro,> 50 µM
same,CC50 at 48 h,[17],30.9 ± 0.63 µM
same,IC50,SARS-CoV PsV [18],50 ± 10 nM
same,EC50,cell-free SARS-CoV PsV [19],100 ± 10 nM
same,IC50,MERS-CoV PsV [20],50 ± 10 nM
same,EC50,cell-free MERS-CoV PsV [21],30 ± 10 nM
same,CC50 at 48 h,[22],18.6 ± 0.23 µM
O=C(O)c1cc(-c2ccc(/C=C3\SC(=S)N(CCc4ccc(OCc5ccc(F)cc5)cc4)C3=O)o2)ccc1Cl [FD010],IC50,SARS-CoV-2 PsV [11],360 nM
same,IC50,[12],1040 nM
same,IC50,[13],1550 nM
same,IC50,[14],870 nM
same,IC50,[15],2880 nM
same,IC50,[16],40 nM
same,EC50,cell-free SARS-CoV-2 PsV; [23],90 nM
same,IC50,"H5N1 PsV; Influenza A virus, H5N1, MDCK",970 ± 210 nM
same,IC50,"H7N9 PsV; Influenza A virus, H7N9, MDCK",5880 ± 610 nM
same,SI CC50/IC50,SARS-CoV PsV [7],70.41
same,SI CC50/EC50,cell-free SARS-CoV PsV [8],107.47
same,SI CC50/IC50,MERS-CoV PsV [9],372.25
same,CC50,in vitro,> 50 µM
same,CC50 at 48 h,[17],44.7 ± 1.26 µM
same,IC50,SARS-CoV PsV [18],290 ± 30 nM
same,EC50,cell-free SARS-CoV PsV [19],190 ± 30 nM
same,IC50,MERS-CoV PsV [20],120 ± 10 nM
same,EC50,cell-free MERS-CoV PsV [21],40 ± 10 nM
same,CC50 at 48 h,[22],20.4 ± 1 µM
C#CCOc1ccc(CCN2C(=O)/C(=C/c3ccc(-c4ccc(Cl)c(C(=O)O)c4)o3)SC2=S)cc1 [FD007],IC50,SARS-CoV-2 PsV [11],320 nM
same,IC50,[12],290 nM
same,IC50,[13],810 nM
same,IC50,[14],530 nM
same,IC50,[15],3090 nM
same,IC50,[16],170 nM
same,EC50,cell-free SARS-CoV-2 PsV; [23],960 nM
same,IC50,"H5N1 PsV; Influenza A virus, H5N1, MDCK",470 ± 110 nM
same,IC50,"H7N9 PsV; Influenza A virus, H7N9, MDCK",2130 ± 200 nM
same,SI CC50/IC50,SARS-CoV PsV [7],301.00
same,SI CC50/EC50,cell-free SARS-CoV PsV [8],21.50
same,SI CC50/IC50,MERS-CoV PsV [9],>250
same,SI CC50/EC50,cell-free MERS-CoV PsV [10],>56.18
same,CC50,in vitro,> 50 µM
same,CC50 at 48 h,[17],> 50 µM
same,IC50,SARS-CoV PsV [18],110 ± 10 nM
same,EC50,cell-free SARS-CoV PsV [19],1540 ± 140 nM
same,IC50,MERS-CoV PsV [20],200 ± 30 nM
same,EC50,cell-free MERS-CoV PsV [21],890 ± 90 nM
same,CC50 at 48 h,[22],33.1 ± 1.02 µM
